Biological target: MetAP-2 (Homo sapiens, UniProt P50579)
Assay: MetAP-2 activity measurement (coupled enzymatic reactions, Met-Arg-Ser substrate, dianisidine detection at 450 nm)
Type: biochemical
Details: Inhibition of MetAP-2; read-out: IC50 enzyme
Experimental: MetAP-2 Activity Measurement
The MetAP-2 activity is determined by coupling enzymatic reactions. The tripeptide Met-Arg-Ser (MAS) is employed as substrate. The methionine liberated is firstly converted into Metox and H2O2 by L-aminooxidase (AAO). In the second step, the peroxidase (POD) with the aid of the H2O2 catalyses the oxidation of the leukodye dianisidine to dianisidineox, the increase of which is detected photometrically at 450 nm.
MetAP-2 activity can be recorded continuously as kinetics. The reaction scheme illustrates that one mol of dianisidineox is formed per mol of methionene. The MetAP-2 enzyme activity can therefore be calculated directly as A absorption per time unit. Qualification of the MetAP-2 activity (mol of Met/time unit) is possible with the aid of the dianisidineox extinction coefficient.
The change in extinction per time unit is depicted graphically and a slope calculation is carried out in the visually linear region of the reaction.

Sequence of MetAP-2 (P50579 whole entry, species assumed): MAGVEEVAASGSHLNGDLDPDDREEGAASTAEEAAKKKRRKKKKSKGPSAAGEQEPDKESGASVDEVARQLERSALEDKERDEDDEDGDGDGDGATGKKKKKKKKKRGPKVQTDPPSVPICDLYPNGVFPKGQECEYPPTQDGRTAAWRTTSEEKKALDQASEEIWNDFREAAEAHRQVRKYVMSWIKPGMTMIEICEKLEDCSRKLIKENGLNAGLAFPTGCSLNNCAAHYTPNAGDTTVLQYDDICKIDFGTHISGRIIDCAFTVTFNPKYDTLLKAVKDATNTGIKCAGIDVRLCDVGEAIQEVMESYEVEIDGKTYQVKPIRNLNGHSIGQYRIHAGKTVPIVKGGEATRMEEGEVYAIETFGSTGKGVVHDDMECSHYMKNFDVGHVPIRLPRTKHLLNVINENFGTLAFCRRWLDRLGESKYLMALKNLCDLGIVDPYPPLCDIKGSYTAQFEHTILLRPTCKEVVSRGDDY

IC50	SMILES
0.01 to 1 µM	O=C(NCc1cc(F)cc(Cl)c1)C1(O)CCN(c2cnn(-c3ccccc3)c2)C1=O (centres unmarked) [A169, N-(3-Chloro-5-fluorobenzyl)-3-hydroxy-2-oxo-1-(1-phenyl-1H-pyrazol-4-yl)pyrrolidine-3-carboxamide]
0.01 to 1 µM	COc1ccc(CN2CCC(O)(C(=O)NCc3cc(F)cc(Cl)c3)C2=O)cc1 (centres unmarked) [A135, N-(3-Chloro-5-fluorobenzyl)-3-hydroxy-1-(4-methoxybenzyl)-2-oxopyrrolidine-3-carboxamide]
0.01 to 1 µM	CN(c1cccc(N2CC[C@](O)(C(=O)NCc3cc(F)cc(Cl)c3)C2=O)c1)S(C)(=O)=O [A165, N-(3-Chloro-5-fluorobenzyl)-(S)-3-hydroxy-1-[3-(methane-sulfonylmethylamino)phenyl]-2-oxopyrrolidine-3-carboxamide]
1 to 10 µM	O=C(NCc1cc(F)cc(Cl)c1)C1(O)CCN(CCc2ccc(F)cc2F)C1=O (centres unmarked) [A237, N-(3-Chloro-5-fluorobenzyl)-1-[2-(2,4-Difluorophenyl)ethyl]-3-hydroxy-2-oxopyrrolidine-3-carboxamide]
0.01 to 1 µM	CC(=O)Nc1ccc(N2CCC(O)(C(=O)NCCc3cccc(F)c3)C2=O)cn1 (centres unmarked) [A174, N-[2-(3-Fluorophenyl)ethyl]-1-(6-acetylaminopyridin-3-yl)-3-hydroxy-2-oxopyrrolidine-3-carboxamide]
0.01 to 1 µM	NS(=O)(=O)c1ccc(N2CCC(O)(C(=O)NCc3cc(F)cc(Cl)c3)C2=O)cc1 (centres unmarked) [B115, N-(3-Chloro-5-fluorobenzyl)-3-hydroxy-2-oxo-1-(4-sulfamoyl-phenyl)pyrrolidine-3-carboxamide]
1 to 10 µM	O=C(NCc1cc(F)cc(Cl)c1)[C@]1(O)CCN(CCc2c[nH]c3ccccc23)C1=O [B38, N-(3-Chloro-5-fluorobenzyl)-(R)-3-hydroxy-1-[2-(1H-indol-3-yl)-ethyl]-2-oxopyrrolidine-3-carboxamide]
0.01 to 1 µM	CNC(=O)[C@H]1CC[C@H](CN2CCC(O)(C(=O)NCc3cc(F)cc(Cl)c3)C2=O)CC1 (some centres unmarked) [A278, N-(3-Chloro-5-fluorobenzyl)-3-hydroxy-1-(4-methylcarbamoyl-cyclohexylmethyl)-2-oxo-pyrrolidine-3-carboxamide]
1 to 10 µM	O=C(NCc1cc(F)cc(Cl)c1)[C@]1(O)CCN(c2cnc3[nH]cnc3c2)C1=O [B93, N-(3-Chloro-5-fluorobenzyl)-(R)-3-hydroxy-1-(3H-imidazo-[4,5-b]pyridin-6-yl)-2-oxo-pyrrolidine-3-carboxamide]
0.01 to 1 µM	O=C(NCc1cc(F)cc(Cl)c1)[C@@]1(O)CCN(c2ccc3[nH]cc(C(F)(F)F)c3c2)C1=O [B74, N-(3-Chloro-5-fluorobenzyl)-(S)-3-hydroxy-2-oxo-1-(3-trifluoro-methyl-1H-indol-5-yl)pyrrolidine-3-carboxamide]
0.01 to 1 µM	NCCOCCOCCNC(=O)c1cc2cc(N3CC[C@](O)(C(=O)NCc4cc(F)cc(Cl)c4)C3=O)ccc2[nH]1 [B108, N-({2-[2-(2-Aminoethoxy)-ethoxy]ethyl})-5-[(S)-3-(3-chloro-5-fluorobenzylcarbamoyl)-3-hydroxy-2-oxopyrrolidin-1-yl]-1H-indole-2-carboxamide]
0.01 to 1 µM	O=C(NCc1cc(F)cc(Cl)c1)C1(O)CCN(c2ccc3[nH]cc(C(F)(F)F)c3c2)C1=O (centres unmarked) [B43, N-(3-Chloro-5-fluorobenzyl)-3-hydroxy-2-oxo-1-(3-trifluoromethyl-1H-indol-5-yl)-pyrrolidine-3-carboxamide]
0.01 to 1 µM	O=C1CCc2cc(N3CCC(O)(C(=O)NCCc4cc(F)cc(Cl)c4)C3=O)ccc2N1 (centres unmarked) [A137, N-[2-(3-Chloro-5-fluorophenyl)-ethyl]-3-hydroxy-2-oxo-1-(2-oxo-1,2,3,4-tetrahydroquinolin-6-yl)-pyrrolidine-3-carboxamide]
0.01 to 1 µM	CCC(=O)Nc1ccc(N2CC[C@](O)(C(=O)NCc3cc(F)cc(Cl)c3)C2=O)cn1 [A171, N-(3-Chloro-5-fluorobenzyl)-(S)-3-hydroxy-2-oxo-1-(6-propionylaminopyridin-3-yl)-pyrrolidine-3-carboxamide]
0.01 to 1 µM	O=C1N(c2ccccc2)CC[C@]1(O)CNCc1cc(F)cc(Cl)c1 [B59, (S)-3-[(3-Chloro-5-fluorobenzylamino)methyl]-3-hydroxy-1-phenylpyrrolidin-2-one]
1 to 10 µM	COc1cc(Cl)c(C)cc1N1CCC(O)(C(=O)NCc2cc(F)cc(Cl)c2)C1=O (centres unmarked) [B12, N-(3-Chloro-5-fluorobenzyl)-1-(4-chloro-2-methoxy-5-methyl-phenyl)-3-hydroxy-2-oxo-pyrrolidine-3-carboxamide]
0.01 to 1 µM	CN(C)C(=O)c1cc2cc(N3CC[C@](O)(C(=O)NCc4cc(F)cc(Cl)c4)C3=O)ccc2[nH]1 [B95, N,N-Dimethyl-5-[(S)-3-(3-chloro-5-fluorobenzylcarbamoyl)-3-hydroxy-2-oxopyrrolidin-1-yl]-1H-indole-2-carboxamide]
0.01 to 1 µM	O=C(NCc1cc(F)cc(Cl)c1)C1(O)CCN(c2ccc(N3CCOCC3)nc2)C1=O (centres unmarked) [A173, N-(3-Chloro-5-fluorobenzyl)-3-hydroxy-1-(6-morpholin-4-yl-pyridin-3-yl)-2-oxopyrrolidine-3-carboxamide]

IC50	SMILES
> 10 µM	O=C1N(CC2CCCCC2)CCC[C@@]1(O)CNCc1cc(F)cc(Cl)c1 [B64, (R)-3-[(3-Chloro-5-fluorobenzylamino)methyl]-1-cyclohexylmethyl-3-hydroxy-piperidin-2-one]
1 to 10 µM	O=C(N1Cc2ccccc2C1)C1(O)CCN(c2ccccc2)C1=O (centres unmarked) [A267, 3-(1,3-dihydroisoindole-2-carbonyl)-3-hydroxy-1-phenylpyrrolidin-2-one]
1 to 10 µM	O=C(NCCCO)c1cccc(N2CC[C@@](O)(C(=O)NCc3cc(F)cc(Cl)c3)C2=O)c1 [A103, N-(3-Chloro-5-fluorobenzyl)-(R)-3-hydroxy-1-[3-(3-hydroxy-propylcarbamoyl)phenyl]-2-oxo-pyrrolidine-3-carboxamide]
1 to 10 µM	O=C(NCc1ccc(F)cc1)C1(O)CCCN(Cc2ccc(F)c(F)c2)C1=O (centres unmarked) [A257, N-(4-Fluorobenzyl)-1-(3,4-difluorobenzyl)-3-hydroxy-2-oxo-piperidine-3-carboxamide]
> 10 µM	CN(C)CCNC(=O)[C@@]1(O)CCN(c2ccccc2)C1=O [A59, N-(2-Dimethylaminoethyl)-(S)-3-hydroxy-2-oxo-1-phenylpyrrolidine-3-carboxamide]
> 10 µM	COCCn1cc(N2CC[C@@](O)(C(=O)NCc3cc(F)cc(Cl)c3)C2=O)cn1 [B100, N-(3-Chloro-5-fluorobenzyl)-(R)-3-hydroxy-1-[1-(2-methoxy-ethyl)-1H-pyrazol-4-yl]-2-oxo-pyrrolidine-3-carboxamide]
0.01 to 1 µM	O=C(c1cccc(N2CC[C@](O)(C(=O)NCc3cc(F)cc(Cl)c3)C2=O)c1)N1CCCC1 [A77, N-(3-Chloro-5-fluorobenzyl)-(S)-3-hydroxy-2-oxo-1-[3-(pyrrolidine-1-carbonyl)phenyl]pyrrolidine-3-carboxamide]
> 10 µM	Cc1cc(CNC(=O)C2(O)CCCN(Cc3ccc(F)c(F)c3)C2=O)no1 (centres unmarked) [A258, N-(5-Methylisoxazol-3-ylmethyl)-1-(3,4-difluorobenzyl)-3-hydroxy-2-oxopiperidine-3-carboxamide]
0.01 to 1 µM	O=C1COCCN1c1ccc(N2CCC(O)(C(=O)NCc3cc(F)cc(Cl)c3)C2=O)cn1 (centres unmarked) [A167, N-(3-Chloro-5-fluorobenzyl)-3-hydroxy-2-oxo-1-[6-(3-oxo-morpholin-4-yl)-pyridin-3-yl]-pyrrolidine-3-carboxamide]
0.01 to 1 µM	Cc1ccc(N2CC[C@](O)(C(=O)NCc3cc(F)cc(Cl)c3)C2=O)c(F)c1 [B66, N-(3-Chloro-5-fluorobenzyl)-(S)-1-(2-fluoro-4-methylphenyl)-3-hydroxy-2-oxopyrrolidine-3-carboxamide]
0.01 to 1 µM	CC(=O)Nc1ccc(N2CCC(O)(C(=O)NCCc3cc(F)cc(Cl)c3)C2=O)cn1 (centres unmarked) [A139, N-[2-(3-Chloro-5-fluorophenyl)-ethyl]-1-(6-acetylaminopyridin-3-yl)-3-hydroxy-2-oxopyrrolidine-3-carboxamide]
0.01 to 1 µM	O=C1CCc2cc(N3CCC(O)(C(=O)NCc4cc(F)cc(Cl)c4)C3=O)cnc2N1 (centres unmarked) [A214, N-(3-Chloro-5-fluorobenzyl)-3-hydroxy-2-oxo-1-(7-oxo-5,6,7,8-tetrahydro-1,8-naphthyridin-3-yl)pyrrolidine-3-carboxamide]
0.01 to 1 µM	NC(=O)Cn1cc(N2CC[C@](O)(C(=O)NCc3cc(F)cc(Cl)c3)C2=O)cn1 [B119, N-(3-Chloro-5-fluorobenzyl)-(S)-1-(1-carbamoylmethyl-1H-pyrazol-4-yl)-3-hydroxy-2-oxo-pyrrolidine-3-carboxamide]
1 to 10 µM	CC(=O)OC1(C(=O)NCc2cc(F)cc(Cl)c2)CCN(c2ccc3c(c2)CCC(=O)N3)C1=O (centres unmarked) [B91, 3-(3-Chloro-5-fluorobenzyl-carbamoyl)-2-oxo-1-(2-oxo-1,2,3,4-tetrahydroquinolin-6-yl)-pyrrolidin-3-yl acetate]
0.01 to 1 µM	O=C(NCc1cc(F)cc(Cl)c1)C1(O)CCN(c2ccc(Cl)c(C(F)(F)F)c2)C1=O (centres unmarked) [B27, N-(3-Chloro-5-fluorobenzyl)-1-(4-Chloro-3-trifluoromethyl-phenyl)-3-hydroxy-2-oxo-pyrrolidine-3-carboxamide]
0.01 to 1 µM	NC(=O)c1cccc(N2CCC(O)(C(=O)NCc3cc(F)cc(F)c3)C2=O)c1 (centres unmarked) [A178, N-(3,5-Difluorobenzyl)-1-(3-carbamoylphenyl)-3-hydroxy-2-oxopyrrolidine-3-carboxamide]
1 to 10 µM	CS(=O)(=O)N[C@H]1CC[C@H](N2CCC(O)(C(=O)NCc3cc(F)cc(Cl)c3)C2=O)CC1 (some centres unmarked) [A123, N-(3-Chloro-5-fluorobenzyl)-3-hydroxy-1-(4-methane-sulfonylaminocyclohexyl)-2-oxo-pyrrolidine-3-carboxamide]
